Test results from PubChem BioAssay AID652140 (Sanford-Burnham Center for Chemical Genomics, 2013).
Calls of active or inactive are those of the source.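 Rule for the calls: active = compounds whose IC50 against the worm SKN-1 reporter ratio signal is 5 µM or lower; inactive = the rest.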

Tested on: C. elegans VP596 gst-4::GFP/RFP ratio, acrylamide, 24 h
Assay: gst-4 reporter suppression by analogs in C. elegans – whole organism, GFP/RFP fluorescence ratio, strain VP596, SKN-1 inhibitor project, SAR follow-up (AID 652140)

| Compound | IC50 |
| --- | --- |
| CCOc1cc(C(=O)NC2CCCC2)cc(Cl)c1OCc1ccc(F)cc1 | > 64 µM (inactive) |
| CCOc1cc(CNC2CCCCC2)cc(Cl)c1OCc1ccc(F)cc1 | 9.66 µM (inactive) |
| CCOc1cc(CNC2CCCC2)cc(Cl)c1OCc1ccc(F)cc1 | 1.04 µM |
| Clc1ccc(-c2csc(-c3ccncc3)n2)cc1 | 1.1 µM |
| COc1ccc(-c2csc(-c3cccnc3)n2)cc1 | > 64 µM (inactive) |
| CCOc1cc(CNC2CCCC2)cc(Cl)c1OCc1ccc(OC)cc1 | > 64 µM (inactive) |
| CCOc1cc(CNC2CCCC2)cc(Cl)c1OCc1ccccc1F | 0.767 µM |
| CCOc1cc(CNC2CCC2)cc(Cl)c1OCc1ccc(F)cc1 | 8.68 µM (inactive) |
| Cc1ccc(-c2csc(-c3cccnc3)n2)cc1 | 30 µM (inactive) |
| c1ccc(-c2csc(-c3ccncc3)n2)cc1 | 2.58 µM |
| Cc1ccc(-c2csc(-c3ccncc3)n2)cc1 | 17.7 µM (inactive) |
| CCOc1cc(CNCc2ccccc2)cc(Cl)c1OCc1ccc(F)cc1 | 17.4 µM (inactive) |
| Fc1ccc(-c2csc(-c3ccncc3)n2)cc1 | 2.03 µM |
| c1ccc(-c2csc(-c3cccnc3)n2)cc1 | 19.6 µM (inactive) |
| CCOc1cc(CNC2CCCC2)ccc1OCc1ccc(F)cc1 | 10.3 µM (inactive) |
| CCOc1cc(CNC2CCCC2)cc(Cl)c1OCc1cccc(F)c1 | 7.17 µM (inactive) |
| COc1ccc(-c2csc(-c3ccncc3)n2)cc1 | 18 µM (inactive) |
| Fc1ccc(-c2csc(-c3cccnc3)n2)cc1 | 6.09 µM (inactive) |
| CCOc1cc(CNC2CC2)cc(Cl)c1OCc1ccc(F)cc1 | 1.96 µM |
| CCOc1cc(CNc2ccccc2)cc(Cl)c1OCc1ccc(F)cc1 | > 64 µM (inactive) |
| CCOc1cc(CNC2CCCC2)cc(Cl)c1OCc1ccccc1Cl | 12 µM (inactive) |
| CCOc1cc(CNC2CCCC2)cc(Cl)c1OC | > 64 µM (inactive) |
| COc1cc(CNC2CCCC2)cc(Cl)c1OCc1ccc(F)cc1 | 0.826 µM |
| Fc1ccc(COc2ccc(CNC3CCCC3)cc2Cl)cc1 | 4.18 µM |
| CCOc1cc(CNC2CCCC2)cc(Cl)c1OCc1ccc(C)cc1 | 25.8 µM (inactive) |
| CCOc1cc(CNC2CCCC2)cc(Cl)c1OCc1ccc(Cl)cc1 | 0.244 µM |
| Clc1ccc(-c2csc(-c3cccnc3)n2)cc1 | 1.51 µM |
| CCOc1cc(CNC(C)C)cc(Cl)c1OCc1ccc(F)cc1 | 16.7 µM (inactive) |
